Literature values as cited in US7056947B2, “Aza-peptide epoxides” (Georgia Tech Research Corp., priority 2002, dated 2006).

How the values were obtained:
[1] = test system: ficin; settings: E-64; cited from earlier work
[2] = biological target: fruit bromelain (Ananas comosus, UniProt O23791); settings: E-64; cited from earlier work
[3] = biological target: stem bromelain (Ananas comosus, UniProt P14518); settings: E-64; cited from earlier work
[4] = biological target: T1, papain (Carica papaya, UniProt P00784); settings: E-64; cited from earlier work
T1 sequence (P00784 134-345): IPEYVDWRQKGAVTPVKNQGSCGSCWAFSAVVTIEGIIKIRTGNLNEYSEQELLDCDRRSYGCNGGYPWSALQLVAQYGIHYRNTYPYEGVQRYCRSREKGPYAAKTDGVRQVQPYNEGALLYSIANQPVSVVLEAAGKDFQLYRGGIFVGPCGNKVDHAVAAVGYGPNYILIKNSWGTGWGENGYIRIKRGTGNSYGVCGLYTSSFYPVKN

[5] = biological target: cathepsin B (Homo sapiens, UniProt P07858); settings: E-64; cited from earlier work
[6] = biological target: cathepsin H (Homo sapiens, UniProt P09668); settings: E-64; cited from earlier work
[7] = biological target: cathepsin L (Homo sapiens, UniProt P07711); settings: E-64; cited from earlier work
Chain of cathepsin L (P07711 114-333, species assumed): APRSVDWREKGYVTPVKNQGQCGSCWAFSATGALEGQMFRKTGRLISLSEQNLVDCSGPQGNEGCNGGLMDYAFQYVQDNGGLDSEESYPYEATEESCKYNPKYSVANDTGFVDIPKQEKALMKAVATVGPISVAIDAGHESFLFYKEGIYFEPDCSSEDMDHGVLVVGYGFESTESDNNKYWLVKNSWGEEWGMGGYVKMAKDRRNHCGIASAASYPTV

[8] = biological target: cathepsin K (Homo sapiens, UniProt P43235); settings: E-64; cited from earlier work
Chain of cathepsin K (P43235 115-329, species assumed): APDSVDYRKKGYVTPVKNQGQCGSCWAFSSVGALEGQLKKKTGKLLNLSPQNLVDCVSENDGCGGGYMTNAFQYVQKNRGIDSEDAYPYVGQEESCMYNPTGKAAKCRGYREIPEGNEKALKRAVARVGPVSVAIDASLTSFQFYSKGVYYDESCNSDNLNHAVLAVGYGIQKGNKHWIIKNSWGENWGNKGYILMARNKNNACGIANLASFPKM

[9] = biological target: cathepsin S (Homo sapiens, UniProt P25774); settings: E-64; cited from earlier work
Chain of cathepsin S (P25774 115-331, species assumed): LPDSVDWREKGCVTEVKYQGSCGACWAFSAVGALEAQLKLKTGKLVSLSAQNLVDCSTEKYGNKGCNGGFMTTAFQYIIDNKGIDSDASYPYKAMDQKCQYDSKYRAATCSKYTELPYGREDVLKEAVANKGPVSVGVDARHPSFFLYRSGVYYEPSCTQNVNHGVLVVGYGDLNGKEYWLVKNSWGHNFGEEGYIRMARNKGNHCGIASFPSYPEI

[10] = biological target: cathepsin X (Homo sapiens, UniProt Q9UBR2); settings: E-64; cited from earlier work
Chain of cathepsin X (Q9UBR2 62-303): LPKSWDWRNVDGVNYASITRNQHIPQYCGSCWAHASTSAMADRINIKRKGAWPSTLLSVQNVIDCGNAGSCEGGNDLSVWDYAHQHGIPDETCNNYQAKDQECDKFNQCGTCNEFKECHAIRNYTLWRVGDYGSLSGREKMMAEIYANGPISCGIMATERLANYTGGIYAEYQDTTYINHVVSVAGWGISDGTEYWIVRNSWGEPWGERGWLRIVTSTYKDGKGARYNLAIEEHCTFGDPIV

[11] = test system: cathepsin O; settings: E-64; cited from earlier work
[12] = biological target: cathepsin F (Homo sapiens, UniProt Q9UBX1); settings: E-64, rate not given; cited from earlier work
[13] = biological target: cathepsin V (Homo sapiens, UniProt O60911); settings: E-64; cited from earlier work
Chain of cathepsin V (O60911 114-334, species assumed): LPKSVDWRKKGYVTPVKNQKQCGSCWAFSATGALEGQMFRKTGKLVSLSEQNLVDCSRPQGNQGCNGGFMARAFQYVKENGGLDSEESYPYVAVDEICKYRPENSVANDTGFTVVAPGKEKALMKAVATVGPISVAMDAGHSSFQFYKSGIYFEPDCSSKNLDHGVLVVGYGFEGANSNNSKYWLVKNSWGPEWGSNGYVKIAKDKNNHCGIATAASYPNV

[14] = test system: cathepsin J; settings: E-64, rate not given; cited from earlier work
[15] = biological target: DPPI (Homo sapiens, UniProt P53634); settings: E-64; cited from earlier work
Chain of DPPI (P53634 25-463, species assumed): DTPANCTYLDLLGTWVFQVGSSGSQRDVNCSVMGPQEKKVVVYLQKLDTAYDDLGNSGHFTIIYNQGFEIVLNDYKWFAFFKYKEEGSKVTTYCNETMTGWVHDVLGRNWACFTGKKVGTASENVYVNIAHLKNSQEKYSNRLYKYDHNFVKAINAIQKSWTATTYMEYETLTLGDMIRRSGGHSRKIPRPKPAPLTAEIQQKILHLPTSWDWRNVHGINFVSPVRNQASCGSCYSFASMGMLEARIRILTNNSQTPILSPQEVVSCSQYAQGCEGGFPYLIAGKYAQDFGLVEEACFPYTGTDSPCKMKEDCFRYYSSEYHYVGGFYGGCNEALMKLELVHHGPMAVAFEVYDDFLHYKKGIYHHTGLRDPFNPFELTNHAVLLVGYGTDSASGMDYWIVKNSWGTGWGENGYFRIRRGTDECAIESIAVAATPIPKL

[16] = biological target: streptococcal proteinase (Streptococcus pyogenes, UniProt P0C0J0); settings: cited from earlier work
[17] = biological target: papaya proteinase IV (Carica papaya, UniProt P05994); settings: E-64; cited from earlier work
[18] = biological target: calpain II (Homo sapiens, UniProt P17655); settings: E-64; cited from earlier work
Chain of calpain II (P17655 whole entry): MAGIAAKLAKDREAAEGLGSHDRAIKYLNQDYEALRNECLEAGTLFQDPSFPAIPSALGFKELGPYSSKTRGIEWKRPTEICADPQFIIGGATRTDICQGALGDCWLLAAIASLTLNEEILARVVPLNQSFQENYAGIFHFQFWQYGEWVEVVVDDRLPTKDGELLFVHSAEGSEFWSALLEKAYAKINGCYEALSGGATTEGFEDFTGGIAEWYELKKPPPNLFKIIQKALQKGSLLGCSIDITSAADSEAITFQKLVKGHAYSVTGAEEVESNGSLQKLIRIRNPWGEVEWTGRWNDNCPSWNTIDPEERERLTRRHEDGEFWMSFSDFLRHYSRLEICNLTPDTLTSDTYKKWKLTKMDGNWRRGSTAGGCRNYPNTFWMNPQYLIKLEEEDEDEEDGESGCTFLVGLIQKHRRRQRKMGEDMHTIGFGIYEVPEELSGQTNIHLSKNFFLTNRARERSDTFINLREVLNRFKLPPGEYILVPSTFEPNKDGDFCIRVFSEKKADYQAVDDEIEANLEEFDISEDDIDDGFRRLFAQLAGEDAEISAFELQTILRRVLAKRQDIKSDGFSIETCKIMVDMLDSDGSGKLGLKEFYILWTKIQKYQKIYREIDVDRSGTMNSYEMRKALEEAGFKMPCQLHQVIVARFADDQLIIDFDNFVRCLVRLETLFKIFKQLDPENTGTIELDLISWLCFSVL
Chain of calpain II (P04632 whole entry partner): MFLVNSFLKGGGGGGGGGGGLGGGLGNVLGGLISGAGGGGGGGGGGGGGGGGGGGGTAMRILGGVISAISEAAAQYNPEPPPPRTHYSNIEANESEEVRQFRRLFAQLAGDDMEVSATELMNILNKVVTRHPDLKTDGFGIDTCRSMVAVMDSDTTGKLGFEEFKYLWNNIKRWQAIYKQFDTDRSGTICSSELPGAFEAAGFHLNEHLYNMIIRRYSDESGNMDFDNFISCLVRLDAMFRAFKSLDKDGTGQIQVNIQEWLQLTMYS

[19] = biological target: bleomycin hydrolase (Homo sapiens, UniProt Q13867); settings: E-64; cited from earlier work
[20] = biological target: cruzain (Trypanosoma cruzi, UniProt P25779); settings: E-64; cited from earlier work
[21] = biological target: vignain (Vigna mungo, UniProt P12412); settings: E-64; cited from earlier work
[22] = biological target: T2, trypsin (Bos taurus, UniProt P00760); settings: E-64; cited from earlier work
T2 construct: gene PRSS1
T2 sequence (P00760 24-246): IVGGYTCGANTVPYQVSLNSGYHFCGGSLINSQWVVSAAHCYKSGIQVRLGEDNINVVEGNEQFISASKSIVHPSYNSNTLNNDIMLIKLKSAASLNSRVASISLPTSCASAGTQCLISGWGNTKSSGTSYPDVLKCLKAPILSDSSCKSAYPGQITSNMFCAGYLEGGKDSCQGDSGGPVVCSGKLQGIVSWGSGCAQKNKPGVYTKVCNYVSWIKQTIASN

[23] = biological target: α-chymotrypsin (Bos taurus, UniProt P00766); settings: E-64; cited from earlier work
[24] = test system: kallikrein; settings: E-64; cited from earlier work
[25] = biological target: pepsin (Homo sapiens, UniProt P0DJD8); settings: E-64; cited from earlier work
Chain of pepsin (P0DJD8 63-388): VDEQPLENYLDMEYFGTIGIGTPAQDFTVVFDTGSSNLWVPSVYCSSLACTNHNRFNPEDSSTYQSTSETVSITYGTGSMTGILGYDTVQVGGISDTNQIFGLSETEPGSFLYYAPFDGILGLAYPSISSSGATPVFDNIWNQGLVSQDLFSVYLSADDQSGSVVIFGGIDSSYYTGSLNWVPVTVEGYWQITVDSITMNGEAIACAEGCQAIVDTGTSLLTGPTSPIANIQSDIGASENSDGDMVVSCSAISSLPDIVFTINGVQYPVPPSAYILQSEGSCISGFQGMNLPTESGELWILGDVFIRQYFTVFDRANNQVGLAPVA

[26] = biological target: plasmin (Homo sapiens, UniProt P00747); settings: E-64; cited from earlier work
Chain of plasmin (P00747 97-810, species assumed): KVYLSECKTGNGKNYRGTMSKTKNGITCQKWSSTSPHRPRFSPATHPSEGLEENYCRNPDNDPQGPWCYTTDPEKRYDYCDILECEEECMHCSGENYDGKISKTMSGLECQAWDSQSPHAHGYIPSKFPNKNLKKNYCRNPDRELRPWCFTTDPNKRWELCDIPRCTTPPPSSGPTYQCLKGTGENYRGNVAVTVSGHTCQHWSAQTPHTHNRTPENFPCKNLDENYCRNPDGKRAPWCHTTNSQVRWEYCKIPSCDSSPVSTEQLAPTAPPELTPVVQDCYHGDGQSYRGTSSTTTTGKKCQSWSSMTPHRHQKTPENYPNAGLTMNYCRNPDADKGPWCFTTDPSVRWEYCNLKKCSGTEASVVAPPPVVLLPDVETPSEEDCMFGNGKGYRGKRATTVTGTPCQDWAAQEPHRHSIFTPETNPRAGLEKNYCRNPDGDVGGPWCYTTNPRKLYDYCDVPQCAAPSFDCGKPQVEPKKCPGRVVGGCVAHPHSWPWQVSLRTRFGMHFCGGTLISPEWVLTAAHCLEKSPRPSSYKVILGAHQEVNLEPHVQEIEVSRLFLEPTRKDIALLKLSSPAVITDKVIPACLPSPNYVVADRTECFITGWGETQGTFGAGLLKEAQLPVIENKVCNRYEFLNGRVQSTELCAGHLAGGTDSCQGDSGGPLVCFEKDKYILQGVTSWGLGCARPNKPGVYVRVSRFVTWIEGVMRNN

[27] = test system: elastase; settings: E-64; cited from earlier work
[28] = test system: mold acid protease; settings: E-64; cited from earlier work
[29] = test system: LDH; settings: E-64; cited from earlier work
[30] = biological target: thermolysin (Bacillus thermoproteolyticus, UniProt P00800); settings: E-64; cited from earlier work
[31] = test system: collagenase; settings: E-64; cited from earlier work
[32] = biological target: clostripain (Hathewaya histolytica, UniProt P09870); settings: E-64; cited from earlier work
Chain of clostripain (P09870 51-526): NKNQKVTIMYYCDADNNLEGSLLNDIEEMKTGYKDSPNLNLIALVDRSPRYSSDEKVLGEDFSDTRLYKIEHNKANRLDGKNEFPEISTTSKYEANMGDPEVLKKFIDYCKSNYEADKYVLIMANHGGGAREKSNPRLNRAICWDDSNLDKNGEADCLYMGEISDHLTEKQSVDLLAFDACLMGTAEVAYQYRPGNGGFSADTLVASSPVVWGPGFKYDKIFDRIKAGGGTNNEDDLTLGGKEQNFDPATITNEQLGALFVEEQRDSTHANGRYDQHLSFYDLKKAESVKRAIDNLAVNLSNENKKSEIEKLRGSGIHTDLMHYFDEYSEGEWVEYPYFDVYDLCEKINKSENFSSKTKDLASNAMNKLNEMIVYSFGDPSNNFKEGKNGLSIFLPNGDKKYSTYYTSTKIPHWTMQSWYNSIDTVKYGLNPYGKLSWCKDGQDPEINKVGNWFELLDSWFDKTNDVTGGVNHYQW

[33] = biological target: caspase 1 (ICE) (Homo sapiens, UniProt P29466); settings: E-64; cited from earlier work
[34] = biological target: legumain (Homo sapiens, UniProt Q99538); settings: E-64; cited from earlier work

Chain of fruit bromelain (O23791 122-351): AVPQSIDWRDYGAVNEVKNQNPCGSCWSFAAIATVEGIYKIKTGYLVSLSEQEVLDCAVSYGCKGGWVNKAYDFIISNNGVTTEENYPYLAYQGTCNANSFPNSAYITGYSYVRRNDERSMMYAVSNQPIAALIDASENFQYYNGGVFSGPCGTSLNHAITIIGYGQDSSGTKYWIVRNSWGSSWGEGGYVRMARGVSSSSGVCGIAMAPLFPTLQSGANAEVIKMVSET
Chain of stem bromelain (P14518 whole entry): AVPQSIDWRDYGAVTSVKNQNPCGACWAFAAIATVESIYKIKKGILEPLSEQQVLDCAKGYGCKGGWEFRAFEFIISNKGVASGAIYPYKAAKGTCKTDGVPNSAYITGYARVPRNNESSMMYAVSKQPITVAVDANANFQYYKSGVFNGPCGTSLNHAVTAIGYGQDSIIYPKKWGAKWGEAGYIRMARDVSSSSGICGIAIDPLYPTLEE

Compound: CC(C)C[C@H](NC(=O)[C@H]1O[C@@H]1C(=O)O)C(=O)NCCCCNC(=N)N [E-64, N-(N-(L-3-trans-carboxyoxiran-2-carbonyl)-L-leucyl)agmatine]
- ID50, ficin [1]: 0.084 (ID50)
- ID50, fruit bromelain [2]: 0.110 (ID50)
- ID50, stem bromelain [3]: 0.025 (ID50)
- ID50, papain [4]: 0.104 (ID50)
- rate, cathepsin B [5]: 89,400 M^−1 s^−1
- rate, cathepsin H [6]: 4,000 M^−1 s^−1
- rate, cathepsin L [7]: 96,250 M^−1 s^−1
- Ki [8]: 1.8 nM
- rate, cathepsin S [9]: 99,000 M^−1 s^−1
- rate, cathepsin X [10]: 775 M⁻¹ s⁻¹
- IC50 [11]: > 100000 nM
- enzymes inactivated: cathepsin F [12]: cathepsin F
- IC50 [13]: > 100 nM
- enzymes inactivated: cathepsin J [14]: cathepsin J
- rate, DPPI [15]: 100 M⁻¹ s⁻¹
- rate, streptococcal proteinase [16]: 624 M⁻¹ s⁻¹
- rate, papaya proteinase IV [17]: 58,000 M^−1 s^−1
- rate, calpain II [18]: 7,500 M^−1 s^−1
- IC50 [19]: > 160000 nM
- rate, cruzain [20]: 70,600 M^−1 s^−1
- rate, vignain [21]: 32,500 M^−1 s^−1
- enzymes not inactivated: trypsin [22]: trypsin
- enzymes not inactivated: α-chymotrypsin [23]: α-chymotrypsin
- enzymes not inactivated: kallikrein [24]: kallikrein
- enzymes not inactivated: pepsin [25]: pepsin
- enzymes not inactivated: plasmin [26]: plasmin
- enzymes not inactivated: elastase [27]: elastase
- enzymes not inactivated: mold acid protease [28]: mold acid protease
- enzymes not inactivated: LDH [29]: LDH
- enzymes not inactivated: thermolysin [30]: thermolysin
- enzymes not inactivated: collagenase [31]: collagenase
- enzymes not inactivated: clostripain [32]: clostripain
- enzymes not inactivated: caspase 1 (ICE) [33]: caspase 1 (ICE)
- enzymes not inactivated: legumain [34]: legumain
